According to patent US20210275545A1, “METHOD OF TREATING CANCER PREFERABLY CHARACTERIZED BY EXPRESSION OF A FUSION PROTEIN COMPRISING A MEMBER OF THE E-TWENTY-SIX FAMILY BY ADMINISTERING AN AGENT THAT INHIBITS THE SYNTHESIS AND/OR ACTIVITY OF CORTISOL” (Yeda Research and Development Co. Ltd., priority 2018, published 2021):

Assays:
[1] = molecular target: GR and FLI1 (Homo sapiens, UniProt P04150); conditions: HEK-293T cells, treated for 60 minutes
Protocol: (§1) (A) The scheme presents the full length Gaussia luciferase protein, along with either the amino-terminal segment (Gluc1), which was fused to an ETS family transcription factor, or the carboxyl terminal segment (Gluc2), which was fused to GR. Amino acid numbers are indicated. cDNAs encoding most members of the ETS family (16 members altogether) were cloned downstream to Gluc1. […] (B) HEK-293T cells (6×10^3) were seeded in 96-well plates. On the next day, cells were transfected with combinations of the Gluc1 plasmid, encoding a fused ETS family member, and the Gluc2 plasmid encoding a fused full-length GR. […] Cells were then lysed and luminescence was determined in biological triplicates. […] (D and E) HEK-293T cells were seeded in 100-mm dishes. Once they reached sub-maximal density (70%), cells were starved overnight for serum factors. […] Cell extracts were then processed for co-immunoprecipitation assays, in which the endogenous FLI1 or ERG protein was immunoprecipitated using a specific antibody, and immunoblotting was performed using an antibody against GR. EB, empty beads; C, solvent control. Images shown are representative of three biological replicates.
(§2) Proximity ligation assay (PLA), extraction of cells, co-immunoprecipitation and cell migration/invasion assays: These assays were performed exactly as recently reported.

[2] = molecular target: GR and ETV4 (Homo sapiens, UniProt P04150); conditions: combination of DEX (1 μM) and RU486 (1 μM)
Sequence of GR and ETV4 (P04150 whole entry): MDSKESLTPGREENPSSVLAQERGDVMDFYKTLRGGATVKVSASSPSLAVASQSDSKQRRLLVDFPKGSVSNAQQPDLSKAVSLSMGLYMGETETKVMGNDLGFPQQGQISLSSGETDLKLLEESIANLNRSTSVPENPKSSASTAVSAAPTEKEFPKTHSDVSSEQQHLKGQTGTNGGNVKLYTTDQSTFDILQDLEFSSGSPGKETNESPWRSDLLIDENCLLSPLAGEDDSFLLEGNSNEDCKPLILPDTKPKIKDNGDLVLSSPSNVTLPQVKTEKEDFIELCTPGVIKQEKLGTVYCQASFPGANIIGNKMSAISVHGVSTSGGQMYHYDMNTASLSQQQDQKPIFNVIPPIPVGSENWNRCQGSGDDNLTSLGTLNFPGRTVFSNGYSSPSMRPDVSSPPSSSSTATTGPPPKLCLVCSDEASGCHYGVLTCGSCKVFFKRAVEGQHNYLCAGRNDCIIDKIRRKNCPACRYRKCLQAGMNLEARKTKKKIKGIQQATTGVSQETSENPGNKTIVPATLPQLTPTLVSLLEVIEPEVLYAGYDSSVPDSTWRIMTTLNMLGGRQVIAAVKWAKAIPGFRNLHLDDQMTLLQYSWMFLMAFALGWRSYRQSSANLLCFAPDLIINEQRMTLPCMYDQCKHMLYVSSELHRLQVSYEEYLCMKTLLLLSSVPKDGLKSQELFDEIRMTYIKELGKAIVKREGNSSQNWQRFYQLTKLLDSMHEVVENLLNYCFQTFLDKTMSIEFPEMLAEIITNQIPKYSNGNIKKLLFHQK
Protocol: as §1
(§3) Protein-fragment complementation assays (PCA): PCA was performed as previously described.

[3] = molecular target: GR and PU.1 (Homo sapiens, UniProt P04150); conditions: combination of DEX (1 μM) and RU486 (1 μM)
Sequence of GR and PU.1 (P04150 whole entry): as above
Protocol: as §1, §3

[4] = tested on: CHLA9, A673 and RD-ES cells; test: MTT cell viability assay, three ES lines; format: cell-based; conditions: increasing concentrations, 24 hours
Protocol: FIGS. 12A-F: Inhibition of GR activity decreases growth and survival of Ewing's sarcoma cells. […] (B) Increasing concentrations of D06, a non-steroidal antagonist of GR [54], were incubated with A673 cells as in A and the MTT assay was performed in triplicates. *, p<0.05. […] Note that the abundance of the endogenous form of FLI1 is much weaker than that of EWS-FLI1. […] MTT assays were performed after 48 hours of treatment. The assay was repeated twice in quadruplets. **, p<0.01, ***, p<0.001. (E) A673 cells were seeded in 100-mm dishes. […] Shown are results of an apoptosis assay performed using an annexinV/7-AAD kit (BioLegend, Inc.). Quantification of the fractions of early and late apoptotic cells is shown in bar plots. The experiment was repeated twice. (F) The indicated ES cells were sparsely seeded in 6-well plates. […] Ten days later, cells were fixed and stained with crystal violet to visualize emerging colonies. Photos are shown along with bar plots showing the quantification of colonies in 5 non-overlapping microscope fields. The experiment was repeated twice. *, p≤0.05; **, p≤0.001.
According to recent reports, the EWS-FLI1 fusion promotes cell cycle progression and inhibits apoptosis. […] Next, siRNA specific to the FLI1 region of the fusion (FIG. 12C) were analyzed in A673 cells. […]

[5] = tested on: RD-ES xenograft; test: RD-ES xenograft tumor growth and KI67 staining; format: in vivo, SCID mice; conditions: 1 mg/kg daily
Excerpt: FIGS. 6A-E. A GR antagonist and a cortisol-lowering drug impede growth of human xenograft models of Ewing's sarcoma. (A) RD-ES cells (2×10^6) were implanted subcutaneously in the right flank of SCID mice. Once tumors reached an approximate size of 150 mm^3, animals were randomized into three groups (n=10). […] The means of tumor volumes (+SEM) are shown. […] (B) Shown are representative images of immunofluorescent staining for KI67 in paraffin-embedded sections of tumors from A, using an antibody against KI67. Scale bars, 100 μm. Also shown is the scatter plot depicting quantification of KI67 staining in randomly selected 4 fields of a representative tumor from each group. […] (C and D) A673 cells (2×10^6) were implanted in female SCID mice. Once tumors reached the size of 150 mm^3, animals were randomized into two groups (n=9). Each group was daily treated with either vehicle, or Metyrapone (25 mg/kg) and tumorigenic growth was monitored. Actual tumor volumes (±SEM) are presented. Also shown are tumors harvested from each group of animals; **p<0.001. […] Luminescence was quantified and presented in a bar graph.
ES animal model studies: All animal experiments were approved by the Weizmann Institute's Animal Care and Use Committee. […] Tumor growth was monitored once every 3 days using a caliper. […]

[6] = molecular target: T1, GR and EWS-FLI1 (Homo sapiens, UniProt P04150); conditions: DEX 1 μM, RU486 1 μM, 60 minutes
T1 sequence (P04150 whole entry): as above
Protocol: (A) CHLA9 cells were seeded in 100-mm dishes. Once they reached sub-maximal density, cells were starved overnight for serum factors. […] Cells were then extracted and the lysates were processed for co-immunoprecipitation assays using an antibody against GR followed by immunobloting that used an antibody against EWS. The image shown is representative of 3 biological replicates. Signals were quantified and normalized (see numbers below each lane). EB, empty beads. […] (C-D) CHLA9 cells were seeded on the upper faces of either Transwell migration chambers or Matrigel-coated invasion chambers, and further incubated for 20 hours in full medium. Control siRNAs or siRNAs specific to either GR or EWS-FLI1 were added to cells 24 hours prior to seeding, and both cell migration and invasion were measured 20 hours later. […] Cells that reached the lower faces of the chambers were fixed and stained. Shown are representative images of stained cells. The bar plots show quantification, using ImageJ, of the area covered by cells. *, p≤0.05, **, p≤0.005. Bars, 500 μm. […] The bar plots show quantification, using ImageJ, of the area covered by cells. *, p≤0.05, **, p≤0.005. […]
(A) RD-ES cells were seeded in 100-mm dishes. […] Cell migration/invasion was determined 20 hours later.

[7] = molecular target: T1, GR and EWS-FLI1; conditions: A673 cells
Protocol: Images were processed using the Zeiss ZEN2011 software. […] Bars, 20 μm.
as §2

Sequence of GR and FLI1 (P04150 whole entry, the tested form may be a part): as the sequence (P04150 whole entry) above

CC#C[C@]1(O)CC[C@H]2[C@@H]3CCC4=CC(=O)CCC4=C3[C@@H](c3ccc(N(C)C)cc3)C[C@@]21C [RU486, Mifepristone]
co-immunoprecipitation of GR and FLI1 [1]: strongly reduced
effect on DEX-induced physical interaction between GR and ETV4 (PCA) [2]: only a trend was noted
effect on DEX-induced physical interaction between GR and PU.1 (PCA) [3]: significantly inhibited
survival of ES cell lines (MTT) [4]: dose-dependent reduction
tumor growth [5]: significantly slower tumor growth
KI67 staining of tumor sections (proliferation) ([5]; relative to control group): slower proliferation rates
GR/EWS-FLI1 co-immunoprecipitation, CHLA9 cells ([6]; CHLA9 cells): completely
GR/EWS-FLI1 co-immunoprecipitation, RD-ES cells ([6]; RD-ES cells): partially
GR/EWS-FLI1 protein-protein interactions (PLA) [7]: blocked
